Test [1] concerns the target T1, DNA topoisomerase 1 (Homo sapiens) (UniProt P11387).
T1 sequence (whole entry): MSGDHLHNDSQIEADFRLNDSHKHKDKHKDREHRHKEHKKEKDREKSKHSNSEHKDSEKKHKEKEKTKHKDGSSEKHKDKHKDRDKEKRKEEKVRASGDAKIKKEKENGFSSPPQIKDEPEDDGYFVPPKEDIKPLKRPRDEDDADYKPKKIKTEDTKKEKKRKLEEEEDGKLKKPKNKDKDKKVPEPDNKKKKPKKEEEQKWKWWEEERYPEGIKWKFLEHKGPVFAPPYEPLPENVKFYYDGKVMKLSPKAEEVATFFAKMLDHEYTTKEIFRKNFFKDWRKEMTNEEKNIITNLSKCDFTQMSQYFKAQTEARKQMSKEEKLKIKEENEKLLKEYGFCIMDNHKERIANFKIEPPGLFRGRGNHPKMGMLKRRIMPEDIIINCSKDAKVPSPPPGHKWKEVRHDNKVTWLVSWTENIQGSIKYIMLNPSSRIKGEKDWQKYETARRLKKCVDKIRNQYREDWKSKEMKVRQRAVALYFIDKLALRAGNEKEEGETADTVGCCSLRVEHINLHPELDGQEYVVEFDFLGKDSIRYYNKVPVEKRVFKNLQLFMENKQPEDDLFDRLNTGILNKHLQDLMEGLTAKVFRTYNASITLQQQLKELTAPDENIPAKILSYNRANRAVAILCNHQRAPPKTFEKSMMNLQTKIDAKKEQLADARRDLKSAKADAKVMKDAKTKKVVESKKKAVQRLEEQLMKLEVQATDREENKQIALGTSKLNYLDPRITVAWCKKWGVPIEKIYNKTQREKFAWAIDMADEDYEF
The test can be described thus: Inhibition of recombinant human DNA topoisomerase 1 expressed in baculovirus expression system assessed as decrease in relaxation of supercoiled pBR322 plasmid DNA at 100 uM using supercoiled pBR322 plasmid DNA as substrate incubated for 30 mins by ethidium bromide staining-based UV imaging analysis relative to control.

Test [2] concerns the target DNA topoisomerase 2-alpha (Homo sapiens) (UniProt P11388). Briefly: Inhibition of human DNA topoisomerase 2alpha assessed as decrease in relaxation of supercoiled pBR322 plasmid DNA at 100 uM using supercoiled pBR322 plasmid DNA as substrate incubated for 30 mins in presence of ATP by ethidium bromide staining-based UV imaging analysis relative to control.
Test [3] concerns MDA-MB-231. The test can be described thus: Cytotoxicity against human MDA-MB-231 cells assessed as cell growth inhibition measured after 2 days by cell counting kit-8 assay. Format: functional, cell-based. Particulars: MDA-MB-231, 48 h. On the technique in general: Tetrazolium dyes change colour on reduction, which living cells bring about.
The subject of test [4] is MDA-MB-468. The test can be described thus: Cytotoxicity against human MDA-MB-468 cells assessed as cell growth inhibition measured after 2 days by cell counting kit-8 assay. It counts as functional, cell-based. Particulars: MDA-MB-468, 48 h.
Test [5] concerns T47D. Briefly: Cytotoxicity against human T47D cells assessed as cell growth inhibition measured after 2 days by cell counting kit-8 assay. Format: functional, cell-based. To be noted: 48 h.
The target of test [6] is T1, DNA topoisomerase 1 (Homo sapiens). Briefly: Inhibition of recombinant human DNA topoisomerase 1 expressed in baculovirus expression system assessed as decrease in relaxation of supercoiled pBR322 plasmid DNA at 20 uM using supercoiled pBR322 plasmid DNA as substrate incubated for 30 mins by ethidium bromide staining-based UV imaging analysis relative to control.
For test [7], the target named is DNA topoisomerase 2-alpha (Homo sapiens) (UniProt P11388). Briefly: Inhibition of human DNA topoisomerase 2alpha assessed as decrease in relaxation of supercoiled pBR322 plasmid DNA at 20 uM using supercoiled pBR322 plasmid DNA as substrate incubated for 30 mins in presence of ATP by ethidium bromide staining-based UV imaging analysis relative to control.

Where a name gives a salt, the structure may show the parent alone. Where only a bound is given, the exact number is not on record here.

This is an account of results in ChEMBL document CHEMBL4715777, “Synthesis and topoisomerases inhibitory activity of heteroaromatic chalcones” (Bioorg Med Chem, 2016).

Usually inhibition stands for the drop in the measured response relative to a control, in per cent. One may read the IC50 as the concentration at which inhibition is half-maximal.

DNA topoisomerase 2-alpha (Homo sapiens), sequence (P11388 whole entry): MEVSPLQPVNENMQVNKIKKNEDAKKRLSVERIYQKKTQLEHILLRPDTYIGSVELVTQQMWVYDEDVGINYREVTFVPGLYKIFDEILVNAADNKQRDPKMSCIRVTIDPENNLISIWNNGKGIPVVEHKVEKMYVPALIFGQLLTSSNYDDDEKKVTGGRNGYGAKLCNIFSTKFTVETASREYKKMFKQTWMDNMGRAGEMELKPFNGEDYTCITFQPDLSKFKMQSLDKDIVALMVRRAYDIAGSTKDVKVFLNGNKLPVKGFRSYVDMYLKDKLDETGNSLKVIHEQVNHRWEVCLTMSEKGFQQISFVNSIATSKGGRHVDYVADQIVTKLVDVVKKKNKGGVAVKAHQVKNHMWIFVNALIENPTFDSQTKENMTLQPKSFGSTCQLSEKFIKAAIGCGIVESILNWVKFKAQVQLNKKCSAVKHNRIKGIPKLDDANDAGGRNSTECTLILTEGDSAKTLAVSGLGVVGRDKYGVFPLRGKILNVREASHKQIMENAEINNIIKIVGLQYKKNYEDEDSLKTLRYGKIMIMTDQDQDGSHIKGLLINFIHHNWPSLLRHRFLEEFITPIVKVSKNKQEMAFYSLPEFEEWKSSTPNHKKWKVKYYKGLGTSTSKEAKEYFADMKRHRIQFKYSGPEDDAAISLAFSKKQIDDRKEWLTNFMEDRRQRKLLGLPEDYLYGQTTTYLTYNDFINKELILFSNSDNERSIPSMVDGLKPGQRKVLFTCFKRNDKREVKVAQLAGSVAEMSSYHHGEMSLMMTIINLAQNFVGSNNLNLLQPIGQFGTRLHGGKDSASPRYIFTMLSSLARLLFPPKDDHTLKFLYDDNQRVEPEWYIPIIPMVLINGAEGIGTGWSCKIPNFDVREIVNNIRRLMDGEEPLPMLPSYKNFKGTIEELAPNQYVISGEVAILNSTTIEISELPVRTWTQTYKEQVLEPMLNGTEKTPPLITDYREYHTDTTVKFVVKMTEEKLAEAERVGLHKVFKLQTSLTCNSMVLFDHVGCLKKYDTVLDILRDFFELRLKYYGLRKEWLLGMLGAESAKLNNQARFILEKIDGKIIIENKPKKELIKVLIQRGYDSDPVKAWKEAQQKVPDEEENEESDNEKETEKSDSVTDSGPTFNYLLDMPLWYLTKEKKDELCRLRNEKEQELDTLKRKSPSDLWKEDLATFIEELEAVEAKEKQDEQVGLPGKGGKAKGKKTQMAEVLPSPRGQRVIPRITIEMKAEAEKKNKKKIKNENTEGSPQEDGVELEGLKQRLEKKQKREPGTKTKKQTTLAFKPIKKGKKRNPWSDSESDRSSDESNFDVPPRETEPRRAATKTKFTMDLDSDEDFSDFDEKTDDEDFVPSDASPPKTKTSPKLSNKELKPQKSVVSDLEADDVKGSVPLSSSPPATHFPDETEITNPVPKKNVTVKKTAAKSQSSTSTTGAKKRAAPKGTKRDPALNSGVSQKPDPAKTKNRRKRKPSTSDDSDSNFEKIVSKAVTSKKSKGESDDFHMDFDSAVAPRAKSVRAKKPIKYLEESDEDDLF

On to `O=C(/C=C/c1cccs1)c1ccc(OCC2CS2)cc1` (centres undefined), for which the figures for the inhibition in test [1] and in test [2] were 14.5% and 0%, respectively. Also, the IC50 in test [3] turned out to be 16.7 µM; in test [4], 5.27 µM; in test [5] it was 11.1 µM.
`CC[C@@]1(O)C(=O)OCc2c1cc1n(c2=O)Cc2cc3ccccc3nc2-1` [CAMPTOTHECIN]: in test [2], the inhibition was less than 30%. For the same compound, the IC50 amounted to 8.83 µM in test [3], 1.71 µM in test [4] and 3.67 µM in test [5].
For the compound `O=C(/C=C/c1ccco1)c1cccc(OCC2CS2)c1` (centres undefined), the inhibition was 1.3% in test [6], 75.4% in test [1], 90.4% in test [2] and 29.8% in test [7]. Moreover, the IC50 in test [3] is 28.9 µM; in test [4], 7.23 µM; in test [5], 10.4 µM.
On to `O=C(/C=C/c1ccco1)c1cccc(OCC2CO2)c1` (centres undefined), for which the inhibition stood at 28.5% in test [1], 67.6% in test [2] and 0.3% in test [7]. Besides, the IC50 was 27.8 µM in test [3], 37.3 µM in test [4] and 22.7 µM in test [5].
On to `O=C(/C=C/c1ccsc1)c1ccc(OCC2CS2)cc1` (centres undefined), for which the inhibition turned out to be 0% in test [6], 100% in test [1] and 0% in test [2]. Moreover, the values for the IC50 in test [3], in test [4] and in test [5] were 50 µM, 23.8 µM and 9.32 µM, respectively.
Turning to `O=C(/C=C/c1ccc(OCC2CO2)cc1)c1ccco1` (centres undefined), the inhibition in test [1] and in test [2] was 0% each time. Also, the IC50 in test [3] amounted to 22.2 µM; in test [4], 17.3 µM; in test [5], 11.2 µM.
For the compound `O=C(/C=C/c1cccs1)c1ccccc1OCC1CS1` (centres undefined), the inhibition in test [1] and in test [2] was 0.4% each time. The IC50 stood at 17.9 µM in test [3], 4.35 µM in test [4] and 7.01 µM in test [5].
As for `O=C(/C=C/c1ccoc1)c1ccc(OCC2CS2)cc1` (centres undefined), the inhibition in test [1] and in test [2] was 0% throughout. Further, the IC50 came out at 19.3 µM in test [3], 5.3 µM in test [4] and 12.3 µM in test [5].
On to `O=C(/C=C/c1ccc(OCC(O)CCl)cc1)c1cccs1` (centres undefined), for which the figures for the inhibition in test [1] and in test [2] were 4.3% and 3.7%, respectively. For the same compound, the results for the IC50 in test [3], in test [4] and in test [5] were 30.3 µM, 7.75 µM and 13 µM, respectively.
For `O=C(/C=C/c1cccs1)c1ccc(OCC2CO2)cc1` (centres undefined) the same measures were 0%, 0.6%, 28.3 µM, 17.2 µM and 17.8 µM.
For `O=C(/C=C/c1ccc(OCC(O)CCl)cc1)c1ccco1` (centres undefined) the same measures were 1.8%, 0%, more than 50 µM, 9.53 µM and more than 50 µM.
Take `O=C(/C=C/c1ccco1)c1ccccc1OCC1CS1` (centres undefined): the inhibition in test [6] turned out to be 6.4%; in test [1], 61.2%; in test [2], 95.4%; in test [7] it was 30.6%. In addition, the IC50 in test [3] was found to be 32.2 µM; in test [4] it was 8.26 µM; in test [5] it was 6.61 µM.
Take `O=C(/C=C/c1cccs1)c1cccc(OCC2CO2)c1` (centres undefined): the inhibition was found to be 2.7% in test [1] and 3.9% in test [2]. The figures for the IC50 in test [3], in test [4] and in test [5] were 15.4 µM, 16.3 µM and 14.6 µM, respectively.
Regarding `O=C(/C=C/c1cccs1)c1ccccc1OCC1CO1` (centres undefined), the inhibition is 11.1% in test [1] and 0.7% in test [2]. Besides, the IC50 was found to be 17.9 µM in test [3], 7.71 µM in test [4] and 17.7 µM in test [5].
For `O=C(/C=C/c1ccoc1)c1ccc(OCC2CO2)cc1` (centres undefined) the same measures were 5.6%, 0.3%, 26.2 µM, 16.5 µM and 20.6 µM.
As to `COc1cccc2c1C(=O)c1c(O)c3c(c(O)c1C2=O)C[C@@](O)(C(=O)CO)C[C@@H]3O[C@H]1C[C@H](N)[C@H](O)[C@H](C)O1` [DOXORUBICIN HYDROCHLORIDE], the IC50 in test [3] turned out to be 3.6 µM; in test [4] it was 2.15 µM; in test [5] it was 2.18 µM.
Consider `O=C(/C=C/c1ccc(OCC2CO2)cc1)c1cccs1` (centres undefined), for which the results for the inhibition in test [6], in test [1] and in test [2] were 15.6%, 34.1% and 0%, respectively. In addition, the IC50 in test [3] was determined as 13.9 µM; in test [4] it was 6.3 µM; in test [5], 10.6 µM.
As for `O=C(/C=C/c1ccco1)c1ccc(OCC2CS2)cc1` (centres undefined), the inhibition worked out at 0% in test [6], 63.8% in test [1], 94.5% in test [2] and 24.7% in test [7]. The results for the IC50 in test [3], in test [4] and in test [5] were 18 µM, 4.32 µM and 9.44 µM, respectively.
With `O=C(/C=C/c1ccco1)c1ccc(OCC2CO2)cc1` (centres undefined), the inhibition is 0% in test [6], 36.8% in test [1] and 6.6% in test [2]. For the same compound, the figures for the IC50 in test [3], in test [4] and in test [5] were 47.1 µM, 48.9 µM and 17.7 µM, respectively.
Take `O=C(/C=C/c1ccsc1)c1ccc(OCC2CO2)cc1` (centres undefined): the values for the inhibition in test [6], in test [1] and in test [2] were 0%, 46.3% and 2.7%, respectively. Also, the IC50 in test [3] was 11.1 µM; in test [4], 10.8 µM; in test [5] it was 10.6 µM.
With `COc1cc([C@@H]2c3cc4c(cc3[C@@H](O[C@@H]3O[C@@H]5CO[C@@H](C)O[C@H]5[C@H](O)[C@H]3O)[C@H]3COC(=O)[C@H]23)OCO4)cc(OC)c1O` [ETOPOSIDE], in test [1], the inhibition was less than 30%. The figures for the IC50 in test [3], in test [4] and in test [5] were 9.13 µM, 0.86 µM and 1.96 µM, respectively.
For `O=C(/C=C/c1ccc(OCC2CS2)cc1)c1ccco1` (centres undefined), the inhibition in test [1] came to 3.3%; in test [2] it was 0%. The IC50 is 24.1 µM in test [3], 8.35 µM in test [4] and 10.6 µM in test [5].
For `O=C(/C=C/c1ccc(OCC2CS2)cc1)c1cccs1` (centres undefined), the inhibition in test [1] was found to be 5.1%; in test [2] it was 0%. The IC50 in test [3] turned out to be 17.3 µM; in test [4], 6.14 µM; in test [5], 3.83 µM.
As to `O=C(/C=C/c1cccs1)c1cccc(OCC2CS2)c1` (centres undefined), the inhibition was determined as 0% in test [1] and 3.7% in test [2]. For the same compound, the half-inhibitory concentration (IC50) worked out at 19.9 µM in test [3], 6.98 µM in test [4] and 10.6 µM in test [5].
Take `O=C(/C=C/c1ccco1)c1ccccc1OCC1CO1` (centres undefined): the inhibition in test [6] came to 24.2%; in test [1], 36.8%; in test [2] it was 82.3%; in test [7], 0%. The IC50 in test [3] was found to be 28.7 µM; in test [4], 48.3 µM; in test [5], 19.4 µM.
